≈ marks a conversion by molar mass, not a printed value. Where “and” joins values, the source holds several entries; their conditions need not be identical. Identical values can stand only once. Like-named read-outs stand apart in the source and are kept apart here.
Legend:
[1] = tested on: L1210 murine lymphocytic leukemia cell line; test: Cytotoxic activity (cell growth inhibition, counting surviving cells) on L1210; assay type: cell-based; conditions: Mus musculus, read-out: Cytotoxicity IC50
Method: The cytotoxic activity was determined against exponentially growing cells.
All the experiments were carried out twice.

[2] = tested on: L1210/L-PAM cells (melphalan resistant murine leukemia, high GSH); test: cells; conditions: for IC50: Mus musculus, L1210/LPAM, 48 h, read-out: Cytotoxicity IC50; for Cytotoxicity on L1210/L-PAM cells in respect to L1210 cells: comparison of IC50 on the two cell lines
Method: The cytotoxic activity was determined on L1210 murine lymphocytic leukemia cell line and on the L-PAM resistant cell subline L1210/L-PAM. Cells were grown in vitro as stabilized suspension cultures.L1210 cells were maintained in RPMI 1640 medium containing β-mercaptoethanol (10 μM). L1210/L-PAM cells were maintained in RPMI 1640 medium containing β-mercaptoethanol (50 μM). All culture media (Biowhittaker, UK) were supplemented with 10% Fetal Calf Serum (Biological Industries, Israel) and 2 mM L-glutamine (Biowhittaker, UK).
The cytotoxic activity was determined against exponentially growing cells. L1210 and L1210/L-PAM cells were seeded in 24 well-plates at concentration of 50,000 cells/ml and immediately treated for 48 h with the drug.
The inhibition of cell growth was evaluated by counting surviving cells with a Coulter Counter. The antiproliferative activity of drugs was calculated from dose-response curves and expressed as IC50 (concentration inhibiting 50% cell growth in treated cultures relative to untreated controls). All the experiments were carried out twice.

[3] = tested on: A2780 human ovarian carcinoma cell line; test: Apoptotic effect (cells with apoptotic morphology, fluorescence microscopy) on A2780 cells with or without BSO pretreatment; assay type: cell-based
Method: (§1) Further evidence of the relevance of GSH levels for the cytotoxicity of the compounds of formula (I) has been obtained by determining the influence of prior treatment with BSO (L-S.R buthionine sulphoximine) on the susceptibility of A2780 human ovarian cells to their cytotoxic and apoptotic effect.
(§2) The cytotoxic activity was determined on A2780 human ovarian carcinoma cell line.
(§3) The cytotoxic activity was determined against exponentially growing cells. A2780 cells were seeded in 6 well-plates at concentration of 100,000 cells/ml for 2 ml and incubated for 24 h with the GSH inhibitor BSO and finally exposed to different concentrations of PNU 166196 (untreated cells were incubated with the medium only).
(§4) After 24 h treatment with the drug, cell growth inhibition was evaluated on the monolayer cells whereas the floating cells were used for morphology evaluation.
Apoptosis was evaluated by fluorescence microscopy. At the end of the treatment, floating cells were collected, washed in PBS, fixed in 70% ice-cold ethanol and stored at −20° C. until analysis (5 days max.). Cells were then centrifuged and the pellets were stained with 50 μg/ml propidium iodide, 0.001% Nonidet P40 and 60 U/ml Rnase and stored in the dark for 30 minutes at 37° C. Cells were centrifuged and the pellets were resuspended in […]. At least 600 cells randomly chosen from 2 smears independently prepared were examined for their nuclear morphology changes (chromatin condensation and DNA fragmentation) using a fluorescence microscope [see Int. J. Cancer 65:491–497 (1996)]. All the experiments were carried out twice. Results are reported per the enclosed table II and comments thereof.

[4] = tested on: A2780 human ovarian carcinoma cell line; test: Cytotoxicity (growth inhibition) on A2780 cells with or without BSO pretreatment; assay type: cell-based
Method: as §1, §2, §3, §4

[5] = L1210 cells (GSH 7.7 nmole/10^6 cells), 48 h incubation
[6] = A2780, BSO alone (dose printed MM)

Q: Which results are given for `C=C(Br)C(=O)Nc1cc(C(=O)Nc2cc(C(=O)Nc3cc(C(=O)Nc4cc(C(=O)NCCC(=N)N)n(C)c4)n(C)c3)n(C)c2)n(C)c1.Cl` [PNU 151807, N-(5-{[(5-{[(5-{[(3-amino-3-iminopropyl)amino]carbonyl}-1-methyl-1H-pyrrol-3-yl)amino]carbonyl}-1-methyl-1H-pyrrol-3-yl)amino]carbonyl}-1-methyl-1H-pyrrol-3-yl)-4-[(2-bromoacryloyl)amino]-1-methyl-1H-pyrrole-2-carboxamide hydrochloride]?
A: IC50 [1, 5]: 0.00086 µg/mL; IC50 [2]: 0.00026 µg/mL

Q: Which IC50 ([1]; L1210, 48 h) does the source give for `N[C@@H](Cc1ccc(N(CCCl)CCCl)cc1)C(=O)O` [L-PAM, melphalan] here?
A: The IC50 was 1.65 µg/mL (≈ 5.41 µM).

Q: And the IC50 [2]?
A: The IC50 was 8.1 µg/mL (≈ 26.5 µM).

Q: And the “Cytotoxicity on L1210/L-PAM cells in respect to L1210 cells” value [2]?
A: The value was “lower”.

Q: What does the source list for `C=C(Br)C(=O)Nc1cc(C(=O)Nc2cc(C(=O)Nc3cc(C(=O)Nc4cc(C(=O)NCCNC(=N)N)n(C)c4)n(C)c3)n(C)c2)n(C)c1.Cl` [PNU 166196, N-(5-{[(5-{[(5-{[(2-{[amino(imino)methyl]amino}ethyl)amino]carbonyl}-1-methyl-1H-pyrrol-3-yl)amino]carbonyl}-1-methyl-1H-pyrrol-3-yl)amino]carbonyl}-1-methyl-1H-pyrrol-3-yl)-4-[(2-bromoacryloyl)amino]-1-methyl-1H-pyrrole-2-carboxamide hydrochloride]?
A: Apoptotic effect (percentage of cells with apoptotic morphology) in BSO pretreated cells in respect to BSO-untreated ones ([3]; A2780): significantly decreased; Apoptosis % ([3]; A2780, 300 ng/ml, no BSO): 17.5 ± 6.5%; Apoptosis % ([3]; A2780, 1000 ng/ml, no BSO): 49.5 ± 15.5%; Apoptosis % ([3]; A2780, 3000 ng/ml, BSO 0.1 mM 24 h before and during treatment): 11.5%; Apoptosis % ([3]; A2780, 3000 ng/ml, no BSO, hydrochloride): 74.5% and 74.5 ± 15.5%; IC50 [1, 5]: 0.00162 µg/mL; Cytotoxicity (percentage of growth inhibition) in BSO pretreated cells in respect to BSO-untreated ones ([4]; A2780): significantly decreased; inhibition at 0.3 µg/mL ([4]; Homo sapiens, A2780, A2780, 300 ng/ml, no BSO): 43 ± 2.5%; inhibition at 1 µg/mL ([4]; Homo sapiens, A2780, A2780, 1000 ng/ml, no BSO): 64.5 ± 14.5%; inhibition at 3 µg/mL ([4]; Homo sapiens, A2780, read-out: Growth inhibition %, A2780, 3000 ng/ml, BSO 0.1 mM 24 h before and during treatment): 38%; inhibition at 3 µg/mL ([4]; Homo sapiens, A2780, read-out: Growth inhibition %, A2780, 3000 ng/ml, no BSO): 77.5%; IC50 [2]: 0.00049 µg/mL

Q: Which IC50 ([1]; L1210, 48 h) does the source give for `Cn1cc(NC(=O)c2cc(NC(=O)c3cc(NC(=O)c4ccc(N(CCCl)CCCl)cc4)cn3C)cn2C)cc1C(=O)NCCC(=N)N` [Tallimustine, 3-[1-methyl-4-[1-methyl-4-[1-methyl-4-[1-methyl-4-[N,N-bis(2-chloroethyl)amino]benzenecarboxamindo]pyrrole-2-carboxamido]pyrrole-2-carboxamido]pyrrole-2-carboxamido]propionamidine] here?
A: The IC50 was 0.0225 µg/mL (≈ 0.0323 µM).

Q: And the IC50 [2]?
A: Its IC50 is 0.0274 µg/mL (≈ 0.0393 µM).

Q: What about the “Cytotoxicity on L1210/L-PAM cells in respect to L1210 cells” value [2] of the same molecule?
A: The value was “comparable”.

Q: Which Apoptosis % [3, 6] does the source give for `CCCCS(=N)(=O)CCC(N)C(=O)O` [BSO, L-S.R buthionine sulphoximine, reference compound] here?
A: The Apoptosis % was 0%.

Q: What about the Growth inhibition % [4, 6] of the same molecule?
A: The Growth inhibition % was 2.5 ± 0.2%.
